From ChEMBL document CHEMBL3352614, “MoGAT-2 Inhibitors May Provide Effective Treatment for Hypertriglyceridemia” (ACS Med Chem Lett, 2014)

Biological target: 2-acylglycerol O-acyltransferase 2 (Homo sapiens, UniProt Q3SYC2)
Assay: Inhibition of human MoGAT-2 expressed in human Caco2 cells assessed as inhibition of 2-O-Hexadecylglycerol […] pretreated for 30 mins by LC-MS analysis
Format: cell-based, Caco-2

Chain of 2-acylglycerol O-acyltransferase 2 (Q3SYC2 whole entry): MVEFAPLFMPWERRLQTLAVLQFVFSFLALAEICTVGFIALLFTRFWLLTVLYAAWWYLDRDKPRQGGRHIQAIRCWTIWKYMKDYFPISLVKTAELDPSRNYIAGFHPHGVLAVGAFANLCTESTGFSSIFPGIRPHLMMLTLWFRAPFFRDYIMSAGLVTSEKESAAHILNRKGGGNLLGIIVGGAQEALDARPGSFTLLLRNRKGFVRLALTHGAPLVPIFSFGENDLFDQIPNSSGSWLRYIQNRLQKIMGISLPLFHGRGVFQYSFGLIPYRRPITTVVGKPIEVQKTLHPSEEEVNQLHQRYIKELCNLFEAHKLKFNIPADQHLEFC

IC50: 294 nM
SMILES: C[C@@H](NS(C)(=O)=O)c1ccc(CNC[C@@H]2CO[C@@H](c3ccccc3)CO2)cc1
